Experiments:
[1] = test system: Hep3B cell line; assay: MTT assay, cell viability after sorafenib treatment; assay type: cell-based, human; conditions: C/C genotype, sorafenib for 48 hours
Protocol: (§1) First, human hepatocellular carcinoma (HCC)-derived cell lines such as Hep3B, SNU182 and PLC/PRFS cell lines were purchased from Korean Cell Line Bank (KCLB, Seoul, Republic of Korea), and genomic DNA was extracted from the cell lines derived from human HCC using a MagAttract DNA mini M48 kit (Qiagen) according to a user manual of the kit.
(§2) Afterward, to confirm the sorafenib response in each cell line according to the SLC15A2 gene nucleotide polymorphism, each cell line was cultured in RPMI-1640 (Invitrogen, Carlsbad, Calif., USA) with 10%(v/v) fetal bovine serum (FBS) and 100 U/ml penicillin-streptomycin at 37° C. in 5% CO2. Next, for the MTT assay, cells obtained by the above-described culture were plated on 96-well plates at a density of 1×10^4 cells/well and treated with sorafenib for 48 hours in the RPMI-1640 used above.
(§3) Then, the number of viable cells was measured by performing the MTT assay (Promega Fitchburg, Wis., USA) according to a user manual of the MTT assay.

[2] = test system: PLC/PRFS cell line; assay: as above; assay type: cell-based, human; conditions: C/T genotype
Protocol: as §1, §2, §3

[3] = test system: SNU182 cell line; assay: as above; assay type: cell-based, human; conditions: SNU182, T/T genotype
Protocol: as §1, §2, §3

[4] = test system: liver cancer patients; assay: Progression-free survival with sorafenib treatment by SLC15A2 genotype (Kaplan-Meier, Cox proportional hazard model); assay type: in vivo, human
Description: Five coding variants were identified in the SLC15A2 gene by NGS analysis, and three non-synonymous SNVs (L350F, P409S and R509K), which may cause a functional alternation in gene product, were selected so as to analyze genotypes for 233 liver cancer patients that had received sorafenib treatment over 6 weeks.
Also, to confirm SNPs to be analyzed, 249 patients treated with sorafenib were genotyped using the MassARRAY system (Sequenom, San Diego, Calif., USA), thereby obtaining three SNP genotypes (C/C, C/T and T/T).
Specifically, the association between generic polymorphisms and risk for progression was assessed by a Cox proportional hazard model with adjustment by stage of hepatocellular carcinoma (HCC). Also, analyses of data obtained were performed using STATA version 10.1 (Stata Corp, College Station, Tex., USA).

Compound: CNC(=O)c1cc(Oc2ccc(NC(=O)Nc3ccc(Cl)c(C(F)(F)F)c3)cc2)ccn1 [sorafenib]
- proliferation [1]: dose-dependently inhibited
- response to sorafenib compared with Hep3B cell line (C/C genotype) ([2]; 48 hours): stronger response
- proliferation ([2]; sorafenib for 48 hours): dose-dependently inhibited
- response to sorafenib compared with Hep3B cell line (C/C genotype) ([3]; 48 hours): stronger response
- proliferation ([3]; sorafenib for 48 hours): dose-dependently inhibited
- progression-free survival (accumulative hazard ratio) [4]: 2.46
- response to sorafenib treatment ([4]; subjects with C/T or T/T genotype compared with C/C genotype): stronger response
